Data published in ChEMBL document CHEMBL5108044, “Discovery of a Novel Potent STAT3 Inhibitor HP590 with Dual p-Tyr705/Ser727 Inhibitory Activity for Gastric Cancer Treatment” (J Med Chem, 2022).
Active and inactive are the calls of the source. No cut-off for these calls is given here.

How the values were obtained:
MKN-45 [1] = test: Antitumor activity against human MKN-45 cells xenografted in BALB/c nude mouse assessed as decrease in tumor volume at 25 mg/kg, po qd measured for 5 weeks; assay type: functional, organism-based
AGS [2] = test: Induction of apoptosis in human AGS cells assessed as viable cells at 5 nM incubated for 48 hrs by FITC-annexin V/propidium iodide staining based flow cytometry (reference value: 87.2%); assay type: functional; conditions: read-out: Activity
[3] = target: Tyrosine-protein kinase JAK1 (Homo sapiens, UniProt P23458); test: Inhibition of JAK1 (unknown origin)
[4] = target: T1, Signal transducer and activator of transcription 3 (Homo sapiens, UniProt P40763); test: Inhibition of STAT3 phosphorylation at Tyr705 residue in human AGS cells incubated upto 24 hrs by Western blotting analysis; assay type: cell-based; conditions: dose <= 40.0 nM, DDE = dose-dependent effect
[5] = target: T1, Signal transducer and activator of transcription 3; test: Inhibition of STAT3 in human GES1cells assessed as downregulation of c-myc expression at 10 to 40 nM incubated for 24 hrs by RT-PCR analysis; assay type: cell-based; conditions: GES1, dose 10-40 nM
[6] = AUC (0 to infinity) in ICR mouse plasma at 10 mg/kg, po measured up to 24 hrs by LC-MS/MS analysis; assay type: ADME, organism-based; parameters: dose 10 mg/kg, time < 24 hrs, route po
[7] = target: T1, Signal transducer and activator of transcription 3; test: Inhibition of STAT3 in human MKN-45 cells assessed as downregulation of cyclin D1 expression up to 40 nM by western blot analysis; assay type: cell-based; conditions: time <= 24.0 hrs, TDE = time-dependent effect
Cytochrome P450 2C19 = Cytochrome P450 2C19 (Homo sapiens, UniProt P33261); test: Inhibition of CYP2C19 in human liver microsome; assay type: ADME, microsomes
MKN-45 [8] = test: In vivo inhibition of STAT3 in human MKN-45 cells xenografted in BALB/c nude mouse assessed as reduction in cyclin D1 gene expression at 25 to 50 mg/kg, po qd administered for 5 weeks by Western blot analysis; assay type: functional, organism-based; conditions: dose 25-50 mg/kg
AGS [9] = test: Antiproliferative activity against human AGS cells assessed as cell viability incubated for 72 hrs by MTS assay; assay type: functional, cell-based; conditions: dose <= 100.0 nM, DDE = dose-dependent effect
AGS [10] = test: Potency index, ratio of IC50 for BBI608 to IC50 for test compound for antiproliferative activity against human AGS cells assessed as reduction in cell viability incubated for 72 hrs by MTS assay; assay type: functional
GES1 = test: Antiproliferative activity against human GES1 cells assessed as cell viability measured upto 1 uM incubated for 72 hrs by MTS assay; assay type: toxicity, cell-based; conditions: ges1, 72 h
[11] = target: T1, Signal transducer and activator of transcription 3; test: Inhibition of STAT3 in human AGS cells assessed as downregulation of Survivin expression at 10 to 40 nM incubated for 24 hrs by RT-PCR analysis; assay type: cell-based; conditions: dose 10-40 nM
AGS [12] = test: Induction of apoptosis in human AGS cells assessed as viable cells at 10 nM incubated for 48 hrs by FITC-annexin V/propidium iodide staining based flow cytometry (reference value: 87.2%); assay type: functional; conditions: read-out: Activity
AGS [13] = test: Antiproliferative activity against human AGS cells assessed as reduction in cell viability incubated for 72 hrs by MTS assay; assay type: functional, cell-based
AGS [14] = test: Induction of apoptosis in human AGS cells assessed as late apoptic cells 10 nM incubated for 48 hrs by FITC-annexin V/propidium iodide staining based flow cytometry (reference value: 9.56%); assay type: functional
AGS [15] = test: Induction of apoptosis in human AGS cells assessed as necrotic cells 10 nM incubated for 48 hrs by FITC-annexin V/propidium iodide staining based flow cytometry (reference value: 2.70%); assay type: functional
MKN-45 [16] = test: Inhibition of colony formation in STAT3 knockdown human MKN-45 cells assessed as reduction in number of colonies incubated for 5 to 7 days by crystal violet staining based assay; assay type: functional, cell-based; conditions: time 5-7 day
[17] = target: T1, Signal transducer and activator of transcription 3; test: Inhibition of STAT3 in human MGC-803 cells assessed as downregulation of cyclin D1 expression up to 40 nM by western blot analysis; assay type: cell-based; conditions: time <= 24.0 hrs, TDE = time-dependent effect
[18] = target: T1, Signal transducer and activator of transcription 3; test: Inhibition of STAT3 in human AGS cells assessed as downregulation of cyclin D1 expression incubated up to 24 hrs by western blot analysis; assay type: cell-based; conditions: dose <= 40.0 nM, DDE = dose-dependent effect
MKN-45 [19] = test: Antitumor activity against human MKN-45 cells xenografted in po dosed BALB/c nude mouse assessed as decrease in tumor volume measured for 5 weeks; assay type: functional, organism-based; conditions: dose 25-50 mg/kg, DDE = dose-dependent effect
MKN-45 [20] = test: Antiproliferative activity against human MKN-45 cells assessed as cell viability incubated for 72 hrs by MTS assay; assay type: functional, cell-based; conditions: dose <= 100.0 nM, DDE = dose-dependent effect
[21] = target: T1, Signal transducer and activator of transcription 3; test: Inhibition of STAT3 phosphorylation at Ser727 residue in human MKN-45 cells incubated upto 24 hrs by Western blotting analysis; assay type: cell-based; conditions: dose <= 40.0 nM, DDE = dose-dependent effect
[22] = target: T1, Signal transducer and activator of transcription 3; test: Inhibition of STAT3 in human GES1cells assessed as downregulation of Cyclin D1 expression at 10 to 40 nM incubated for 24 hrs by RT-PCR analysis; assay type: cell-based; conditions: GES1, dose 10-40 nM
MKN-45 [23] = test: Induction of apoptosis in human MKN-45 cells assessed as late apoptic cells 10 nM incubated for 48 hrs by FITC-annexin V/propidium iodide staining based flow cytometry (reference value: 17.9%); assay type: functional
[24] = target: T1, Signal transducer and activator of transcription 3; test: Inhibition of STAT3 phosphorylation at Tyr705 residue in human MGC-803 cells upto 40 nM by Western blotting analysis; assay type: cell-based; conditions: time <= 24.0 hrs, TDE = time-dependent effect
MKN-45 [25] = test: Induction of apoptosis in human MKN-45 cells assessed as late apoptic cells 5 nM incubated for 48 hrs by FITC-annexin V/propidium iodide staining based flow cytometry (reference value: 17.9%); assay type: functional
Cytochrome P450 3A4 = Cytochrome P450 3A4 (Homo sapiens, UniProt P08684); test: Inhibition of CYP3A4 in human liver microsome; assay type: ADME, microsomes
MKN-45 [26] = test: Inhibition of mitochondrial respiration in STAT3 knockdown human MKN-45 cells assessed as maximal oxygen consumption rate incubated for 80 mins […]; assay type: functional, cell-based
[27] = target: T2, Mitogen-activated protein kinase 13 (Homo sapiens, UniProt O15264); test: Inhibition of p38delta (unknown origin)
T2 sequence (O15264 whole entry): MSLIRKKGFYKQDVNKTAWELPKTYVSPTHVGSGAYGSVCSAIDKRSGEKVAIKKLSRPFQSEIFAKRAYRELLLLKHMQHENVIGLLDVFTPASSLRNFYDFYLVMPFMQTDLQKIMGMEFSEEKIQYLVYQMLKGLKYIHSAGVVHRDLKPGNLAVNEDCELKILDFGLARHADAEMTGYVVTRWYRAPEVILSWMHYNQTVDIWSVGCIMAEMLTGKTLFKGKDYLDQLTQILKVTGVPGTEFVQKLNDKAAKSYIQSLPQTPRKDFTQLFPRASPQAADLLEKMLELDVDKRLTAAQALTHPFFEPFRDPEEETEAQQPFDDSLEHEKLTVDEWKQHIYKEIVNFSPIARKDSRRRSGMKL

[28] = target: T1, Signal transducer and activator of transcription 3; test: Inhibition of STAT3 in human MGC-803 cells assessed as downregulation of c-Myc expression up to 40 nM by western blot analysis; assay type: cell-based; conditions: time <= 24.0 hrs, DDE = dose-dependent effect
[29] = Elimination half life in ICR mouse plasma at 10 mg/kg, po measured up to 24 hrs by LC-MS/MS analysis; assay type: ADME, organism-based; conditions: read-out: beta t1/2 (converted)
MGC-803 = test: Antiproliferative activity against human MGC-803 cells assessed as cell viability incubated for 72 hrs by MTS assay; assay type: functional, cell-based; conditions: dose <= 100.0 nM, DDE = dose-dependent effect

T1 sequence (P40763 whole entry): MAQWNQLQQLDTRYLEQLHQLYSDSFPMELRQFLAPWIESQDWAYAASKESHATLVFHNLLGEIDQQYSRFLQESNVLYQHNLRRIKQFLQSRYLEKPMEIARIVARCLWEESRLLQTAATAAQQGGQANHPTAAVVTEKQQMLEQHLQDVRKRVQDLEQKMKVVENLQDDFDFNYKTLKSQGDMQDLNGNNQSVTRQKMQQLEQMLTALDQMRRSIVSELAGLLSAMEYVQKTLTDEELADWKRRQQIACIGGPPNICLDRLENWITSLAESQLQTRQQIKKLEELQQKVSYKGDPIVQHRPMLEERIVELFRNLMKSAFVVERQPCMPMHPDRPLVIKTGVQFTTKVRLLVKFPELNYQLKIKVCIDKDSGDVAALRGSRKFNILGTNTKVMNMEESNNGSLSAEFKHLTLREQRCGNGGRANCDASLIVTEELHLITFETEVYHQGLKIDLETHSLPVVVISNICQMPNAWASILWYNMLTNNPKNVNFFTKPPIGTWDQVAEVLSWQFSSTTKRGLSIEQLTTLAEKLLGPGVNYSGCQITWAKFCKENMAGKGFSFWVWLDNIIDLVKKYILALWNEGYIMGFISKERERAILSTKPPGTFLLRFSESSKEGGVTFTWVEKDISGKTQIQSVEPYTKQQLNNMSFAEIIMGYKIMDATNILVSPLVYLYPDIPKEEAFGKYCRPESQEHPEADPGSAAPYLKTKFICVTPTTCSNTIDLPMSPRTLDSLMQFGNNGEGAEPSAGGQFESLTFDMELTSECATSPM
Cytochrome P450 3A4, sequence (P08684 whole entry): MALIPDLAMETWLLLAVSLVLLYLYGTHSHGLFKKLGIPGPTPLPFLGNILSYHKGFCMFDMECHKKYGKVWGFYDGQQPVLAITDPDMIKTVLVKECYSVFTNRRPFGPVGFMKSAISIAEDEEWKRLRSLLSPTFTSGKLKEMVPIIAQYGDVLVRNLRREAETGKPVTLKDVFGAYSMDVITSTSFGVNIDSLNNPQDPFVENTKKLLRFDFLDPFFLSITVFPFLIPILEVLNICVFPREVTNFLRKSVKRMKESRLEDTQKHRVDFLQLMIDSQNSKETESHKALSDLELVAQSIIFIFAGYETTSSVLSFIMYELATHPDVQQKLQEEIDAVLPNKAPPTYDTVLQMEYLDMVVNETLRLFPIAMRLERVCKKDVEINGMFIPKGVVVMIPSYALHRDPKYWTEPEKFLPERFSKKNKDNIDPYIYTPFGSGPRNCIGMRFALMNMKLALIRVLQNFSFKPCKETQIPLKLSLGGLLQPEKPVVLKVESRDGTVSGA
Tyrosine-protein kinase JAK1, sequence (P23458 whole entry): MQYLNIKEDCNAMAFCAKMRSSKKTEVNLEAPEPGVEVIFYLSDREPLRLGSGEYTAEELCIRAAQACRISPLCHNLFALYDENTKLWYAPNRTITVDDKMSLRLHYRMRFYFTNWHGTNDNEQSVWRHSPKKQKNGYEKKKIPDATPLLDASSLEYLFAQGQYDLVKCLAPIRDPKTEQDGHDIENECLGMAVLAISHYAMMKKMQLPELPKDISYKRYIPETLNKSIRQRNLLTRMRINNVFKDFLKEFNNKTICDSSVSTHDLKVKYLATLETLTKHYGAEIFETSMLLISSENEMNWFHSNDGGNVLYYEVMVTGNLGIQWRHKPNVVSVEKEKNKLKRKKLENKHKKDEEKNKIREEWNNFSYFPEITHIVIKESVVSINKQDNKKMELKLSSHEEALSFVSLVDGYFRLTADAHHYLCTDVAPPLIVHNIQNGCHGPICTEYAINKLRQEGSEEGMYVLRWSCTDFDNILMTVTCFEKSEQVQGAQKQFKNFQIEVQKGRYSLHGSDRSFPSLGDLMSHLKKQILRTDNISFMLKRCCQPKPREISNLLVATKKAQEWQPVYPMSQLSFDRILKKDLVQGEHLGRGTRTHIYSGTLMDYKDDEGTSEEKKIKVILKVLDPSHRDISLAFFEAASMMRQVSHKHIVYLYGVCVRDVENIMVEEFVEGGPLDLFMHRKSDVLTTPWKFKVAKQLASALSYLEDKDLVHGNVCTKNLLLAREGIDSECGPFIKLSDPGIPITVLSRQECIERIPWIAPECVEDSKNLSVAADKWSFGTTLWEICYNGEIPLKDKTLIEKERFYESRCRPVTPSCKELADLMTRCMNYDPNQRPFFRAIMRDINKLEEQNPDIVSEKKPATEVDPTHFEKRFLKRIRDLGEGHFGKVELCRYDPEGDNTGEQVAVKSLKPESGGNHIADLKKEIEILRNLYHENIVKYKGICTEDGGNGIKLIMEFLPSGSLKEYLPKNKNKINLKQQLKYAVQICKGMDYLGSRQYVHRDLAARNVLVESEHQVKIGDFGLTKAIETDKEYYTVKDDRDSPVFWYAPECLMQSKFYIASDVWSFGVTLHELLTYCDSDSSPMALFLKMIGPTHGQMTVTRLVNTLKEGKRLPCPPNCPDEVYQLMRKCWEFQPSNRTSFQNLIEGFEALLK
Cytochrome P450 2C19, sequence (P33261 whole entry): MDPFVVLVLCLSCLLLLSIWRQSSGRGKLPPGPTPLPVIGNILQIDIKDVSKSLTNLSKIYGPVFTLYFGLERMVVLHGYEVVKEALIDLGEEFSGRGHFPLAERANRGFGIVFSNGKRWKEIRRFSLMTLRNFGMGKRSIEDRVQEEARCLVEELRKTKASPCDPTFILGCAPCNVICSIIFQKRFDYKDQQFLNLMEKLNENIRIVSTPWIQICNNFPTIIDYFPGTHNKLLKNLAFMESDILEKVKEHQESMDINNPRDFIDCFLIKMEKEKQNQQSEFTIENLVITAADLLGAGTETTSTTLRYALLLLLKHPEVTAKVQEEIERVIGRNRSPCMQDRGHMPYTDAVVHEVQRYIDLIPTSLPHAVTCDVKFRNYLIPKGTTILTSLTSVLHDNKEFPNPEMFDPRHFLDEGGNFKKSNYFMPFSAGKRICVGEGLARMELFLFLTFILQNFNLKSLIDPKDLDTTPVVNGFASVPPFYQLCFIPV

O=C(c1ccc(-c2noc(-c3ccc(C(F)(F)F)cc3)n2)cc1)N1CCN(Cc2ccc(OCC(F)(F)F)cc2)CC1
Activity (MKN-45 [1]): Active
viability at 0.005 µM (AGS [2]): 85.7%
IC50 [3]: > 10 µM
inhibition [4]: Dde
inhibition [5]: Active
AUC(0-inf) [6]: 15.5 µg·h/mL
inhibition [7]: Tde
IC50 (Cytochrome P450 2C19): 15.9 µM
inhibition (MKN-45 [8]): Active
Activity (AGS [9]): Dde
Ratio IC50 (AGS [10]): 30
Activity (GES1): Non-Toxic
inhibition [11]: Active
viability at 0.01 µM (AGS [12]): 82.3%
IC50 (AGS [13]): 0.0135 µM
Activity (AGS [14]): 10.4%
Activity (AGS [15]): 4.79%
inhibition (MKN-45 [16]): Active
inhibition [17]: Tde
inhibition [18]: Dde
Activity (MKN-45 [19]): Dde
Activity (MKN-45 [20]): Dde
inhibition [21]: Dde
inhibition [22]: Active
Activity (MKN-45 [23]): 19.6%
inhibition [24]: Tde
Activity (MKN-45 [25]): 17.1%
IC50 (Cytochrome P450 3A4): > 50 µM
inhibition (MKN-45 [26]): Active
IC50 [27]: > 10 µM
inhibition [28]: Dde
half-life [29]: 16 h
Activity (MGC-803): Dde
